Source: patent publication US12281363B2, “Methods for detecting antiviral-drug resistant virus” (Secretary of State for Health and Social Care, priority 2018, dated 2025)
Where two headings read alike, the source gives them in different places.

System: HSV-1
Test: Plaque reduction assay, HSV-1 clinical isolates on Vero cells
Type: cell-based
Conditions: Human alphaherpesvirus 1, Vero
Description: Viral isolates were used to infect a sub-confluent monolayer of Vero cells at a concentration of 75 or 50 plaque forming units (PFU) per well for HSV-1 and HSV-2, respectively. […] CMC medium typically used to create a semisolid interface and prevents indiscrimate viral spreading. Other materials (e.g. agar) may also be used to create this interface.
Cells were fixed with 10% formalin and stained with crystal violet before enumeration of the plaques (microscopic observation or use of fluorescent antibodies for detection is also suitable). The data obtained from these experiments were then expressed as percent inhibition of viral infectivity relative to the no drug control.
Definitions of phenotypic drug susceptibility classification as sensitive or resistant were as follows: ACV, <3 μM or >40 μM; PCV, <10 μM or >40 μM; CDV, <24 μM or >30 μM; FOS, <250 μM or >400 μM; and ACV, <6.5 μM or >40 μM; PCV, <38 μM or >40 μM; FOS, <250 μM or >400 μM for HSV-1 and HSV-2, respectively. Any IC50 values falling in between these sensitive and resistant cut-offs were reported as intermediate resistance.
The phenotype (i.e. reactivity to a drug) of the virus was characterised by the plaque reduction assay as described above.

Measured: IC50

Nc1nc2c(ncn2COCCO)c(=O)[nH]1 [Aciclovir, acyclovir]
< 3 µM: read-out: Drug susceptibility Aciclovir (ACV), isolate HPG005, HSV-1 TK A37V (110C>T) | read-out: Drug susceptibility Aciclovir (ACV), isolate HPG005, HSV-1 TK A192T (574G>A) | read-out: Drug susceptibility Aciclovir (ACV), isolate HPG009, HSV-1 pol E992K (2974G>A), also pol A1169T | read-out: Drug susceptibility Aciclovir (ACV), isolate HPG014, HSV-1 pol A1115T (3343G>A) | read-out: Drug susceptibility Aciclovir (ACV), isolate HPG014, HSV-1 pol R993C (2977C>T) | read-out: Drug susceptibility Aciclovir (ACV), isolate HPG014, HSV-1 pol T54A (160A>G) | read-out: Drug susceptibility Aciclovir (ACV), isolate HPG015, HSV-1 pol 966stop or F965_I966insF (2892_2893insT to 2895_2896insT) | read-out: Drug susceptibility Aciclovir (ACV), isolate HPG016, HSV-1 pol A1169T (3505G>A) | read-out: Drug susceptibility Aciclovir (ACV), isolate HPG020, HSV-1 pol S911N (2732G>A), also pol A1169T | read-out: Drug susceptibility Aciclovir (ACV), isolate HPG041, HSV-1 pol S911N (2732G>A), also pol A1169T
3 to 40 µM: read-out: Drug susceptibility Aciclovir (ACV), isolate HPG002, HSV-1 pol E992K (2974G>A), also TK insert (G) nt 430-436, pol A1169T | read-out: Drug susceptibility Aciclovir (ACV), isolate HPG003, HSV-1 TK Y172S (515A>C) | read-out: Drug susceptibility Aciclovir (ACV), isolate HPG008, HSV-1 TK V204G (611T>G) | read-out: Drug susceptibility Aciclovir (ACV), isolate HPG010, HSV-1 TK Q125* (373C>T) | read-out: Drug susceptibility Aciclovir (ACV), isolate HPG011, HSV-1 TK Q125* (373C>T) | read-out: Drug susceptibility Aciclovir (ACV), isolate HPG013, HSV-1 TK M121I (363G>A) | read-out: Drug susceptibility Aciclovir (ACV), isolate HPG013, HSV-1 pol D83A (248A>C), also TK M121I, pol A1169T | read-out: Drug susceptibility Aciclovir (ACV), isolate HPG018, HSV-1 TK frameshift (881delC to 885delC) | read-out: Drug susceptibility Aciclovir (ACV), isolate HPG018, HSV-1 pol P1199T (3595C>A), also TK deletion (C) nt 881-885, pol A1169T | read-out: Drug susceptibility Aciclovir (ACV), isolate HPG025, HSV-1 pol E850Q (2548G>C), also TK R216C | read-out: Drug susceptibility Aciclovir (ACV), isolate HPG026, HSV-1 pol E850Q (2548G>C), also TK R216C, pol A1169T | read-out: Drug susceptibility Aciclovir (ACV), isolate HPG031, HSV-1 pol E1120A (3359A>C), also a TK resistance mutation (footnote e) | read-out: Drug susceptibility Aciclovir (ACV), isolate HPG031, HSV-1 pol G139R (415G>C or 415G>A), also a TK resistance mutation (footnote e) | read-out: Drug susceptibility Aciclovir (ACV), isolate HPG032, HSV-1 TK 183* (437_438insA) | read-out: Drug susceptibility Aciclovir (ACV), isolate HPG033, HSV-1 TK I358L (1072A>C), also TK T287M | read-out: Drug susceptibility Aciclovir (ACV), isolate HPG033, HSV-1 pol N1046T (3137A>C), also TK T287M, pol A1169T | read-out: Drug susceptibility Aciclovir (ACV), isolate HPG035, HSV-1 pol S239L (716C>T), also pol S724N | read-out: Drug susceptibility Aciclovir (ACV), isolate HPG037, HSV-1 TK L69M (205>A), also TK Y239H | read-out: Drug susceptibility Aciclovir (ACV), isolate HPG037, HSV-1 TK R256W (766C>T) | read-out: Drug susceptibility Aciclovir (ACV), isolate HPG037, HSV-1 TK Y239H (715T>C) | read-out: Drug susceptibility Aciclovir (ACV), isolate HPG039, HSV-1 TK 85* or H58fs (169delC, 170delC, 171delC, or 172delC) | read-out: Drug susceptibility Aciclovir (ACV), isolate HPG042, HSV-1 TK frameshift (881delC to 885delC) | read-out: Drug susceptibility Aciclovir (ACV), isolate HPG043, HSV-1 TK 183* (437_438insA) | read-out: Drug susceptibility Aciclovir (ACV), isolate HPG045, HSV-1 TK L49R (146T>G) | read-out: Drug susceptibility Aciclovir (ACV), isolate HPG045, HSV-1 pol L419I (1255C>A), also TK L49R, pol A1169T | read-out: Drug susceptibility Aciclovir (ACV), isolate HPG046, HSV-1 TK I166N (497T>A) | read-out: Drug susceptibility Aciclovir (ACV), isolate HPG047, HSV-1 pol E680 (2039A>C), also TK deletion (C) nt 548-553, pol A1169T | read-out: Drug susceptibility Aciclovir (ACV), isolate HPG051, HSV-1 pol D83A (248A>C), also TK R176stop | read-out: Drug susceptibility Aciclovir (ACV), isolate HPG052, HSV-1 TK Q34* (100C>T) | read-out: Drug susceptibility Aciclovir (ACV), isolate HPG054, HSV-1 pol E992K (2974G>A), also TK insert (G) nt 430-436, pol A1169T | read-out: Drug susceptibility Aciclovir (ACV), isolate HPG055, HSV-1 TK V204G (611T>G), also pol A1169AT
> 40 µM: read-out: Drug susceptibility Aciclovir (ACV), isolate HPG006, HSV-1 pol G121S (361G>A), also a TK resistance mutation (footnote a) | read-out: Drug susceptibility Aciclovir (ACV), isolate HPG012, HSV-1 pol G985E (2954G>A), also TK A93V | read-out: Drug susceptibility Aciclovir (ACV), isolate HPG019, HSV-1 pol K750T (2249A>C), also TK deletion (G) nt 430-436, pol A1169T | read-out: Drug susceptibility Aciclovir (ACV), isolate HPG021, HSV-1 pol R681Q (2042G>A), also TK deletion (G) nt 430-436 | read-out: Drug susceptibility Aciclovir (ACV), isolate HPG021, HSV-1 pol T839A (2515A>G), also TK deletion (G) nt 430-436 | read-out: Drug susceptibility Aciclovir (ACV), isolate HPG027, HSV-1 TK V204G (611T>G), also pol S914L, A1169AT | read-out: Drug susceptibility Aciclovir (ACV), isolate HPG027, HSV-1 pol S914L (2741C>T), also TK V204G, pol A1169T | read-out: Drug susceptibility Aciclovir (ACV), isolate HPG029, HSV-1 TK Y172S (515A>C) | read-out: Drug susceptibility Aciclovir (ACV), isolate HPG040, HSV-1 pol S911N (2732G>A), also TK deletion (C) nt 896-900, pol A1169T | read-out: Drug susceptibility Aciclovir (ACV), isolate HPG042, HSV-1 pol A972V (2915C>T), also TK deletion (C) nt 881-885, pol A1169T | read-out: Drug susceptibility Aciclovir (ACV), isolate HPG042, HSV-1 pol G22R (64G>A), also TK deletion (C) nt 881-885, pol A1169T | read-out: Drug susceptibility Aciclovir (ACV), isolate HPG050, HSV-1 TK Q34* (100C>T) | read-out: Drug susceptibility Aciclovir (ACV), isolate HPG053, HSV-1 pol L802R + A834S (2405T>G, 2500G>T), also TK R176W | read-out: Drug susceptibility Aciclovir (ACV), isolate HPG053, HSV-1 pol S911N (2732G>A), also TK R176W, pol A1169T
